Measured values published in patent US8791132B2, “Compounds and methods for treatment of hypertension” (Medivation Technologies, Inc., priority 2011, dated 2014).

Tests used:
[1] = molecular target: T1, rat adrenergic α1B receptor (Rattus norvegicus, UniProt P15823); test: Radioligand binding, adrenergic α1B ([3H]Prazosin); conditions: 0.1 μM compound; read-out: Percentage inhibition of ligand binding, Adrenergic α1B
T1 construct: rat adrenergic α1B receptor obtained from Wistar Rat liver; from tissue; host or cells: Wistar rat liver
T1 sequence (P15823 1-515): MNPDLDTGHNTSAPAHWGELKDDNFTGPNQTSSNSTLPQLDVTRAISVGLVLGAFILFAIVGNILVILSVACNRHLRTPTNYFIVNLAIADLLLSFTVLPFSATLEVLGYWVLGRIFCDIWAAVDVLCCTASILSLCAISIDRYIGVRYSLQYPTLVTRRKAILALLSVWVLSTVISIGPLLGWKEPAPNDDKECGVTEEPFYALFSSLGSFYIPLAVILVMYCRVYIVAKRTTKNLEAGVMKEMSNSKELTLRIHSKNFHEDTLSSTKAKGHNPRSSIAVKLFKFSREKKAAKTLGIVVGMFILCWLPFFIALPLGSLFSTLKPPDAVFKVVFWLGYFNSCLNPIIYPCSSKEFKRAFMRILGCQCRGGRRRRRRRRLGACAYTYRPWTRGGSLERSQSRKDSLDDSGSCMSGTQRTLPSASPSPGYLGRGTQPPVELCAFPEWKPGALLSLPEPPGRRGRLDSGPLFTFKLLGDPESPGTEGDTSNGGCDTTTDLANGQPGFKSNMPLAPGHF
How it was run: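 Filter binding with Wistar rat liver α1B preparation: test compound plus 0.25 nM [3H]prazosin, 1 h at 25° C in modified Tris-HCl buffer pH 7.4.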

[2] = molecular target: T2, human recombinant adrenergic α1D receptor (Homo sapiens, UniProt P25100); test: Radioligand binding, adrenergic α1D ([3H]Prazosin); conditions: 0.1 μM compound; read-out: Percentage inhibition of ligand binding, Adrenergic α1D
T2 construct: expressed in transfected cells; host or cells: HEK-293
T2 sequence (P25100 1-572): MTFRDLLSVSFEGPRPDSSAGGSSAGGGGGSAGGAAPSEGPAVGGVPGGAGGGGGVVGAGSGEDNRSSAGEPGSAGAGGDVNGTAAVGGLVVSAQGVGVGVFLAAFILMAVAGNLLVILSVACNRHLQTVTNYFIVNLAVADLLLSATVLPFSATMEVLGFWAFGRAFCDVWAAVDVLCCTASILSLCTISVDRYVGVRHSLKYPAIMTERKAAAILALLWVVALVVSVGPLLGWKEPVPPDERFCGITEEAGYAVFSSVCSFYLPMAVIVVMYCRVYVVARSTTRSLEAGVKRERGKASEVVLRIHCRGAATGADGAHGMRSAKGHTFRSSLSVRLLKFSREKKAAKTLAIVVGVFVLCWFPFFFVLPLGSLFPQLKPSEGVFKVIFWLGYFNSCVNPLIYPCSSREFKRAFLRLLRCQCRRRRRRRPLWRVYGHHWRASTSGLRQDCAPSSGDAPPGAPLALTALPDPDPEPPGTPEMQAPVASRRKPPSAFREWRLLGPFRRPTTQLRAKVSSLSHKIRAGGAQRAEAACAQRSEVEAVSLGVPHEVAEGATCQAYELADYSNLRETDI
Description: Compounds were incubated with 0.6 nM [3H]Prazosin for 60 min at 25° C. Non-specific binding was estimated in the presence of 10 μM phentolamine. Receptor proteins were filtered and washed, the filters were then counted to determine [3H]Prazosin specifically bound. […] Biochemical assay results are presented as the percent inhibition of specific binding in Table B1.

[3] = molecular target: T3, human recombinant adrenergic α2A receptor (Homo sapiens, UniProt P08913); test: Radioligand binding, adrenergic α2A ([3H]MK-912); conditions: 0.1 μM compound; read-out: Percentage inhibition of ligand binding, Adrenergic α2A
T3 construct: expressed in transfected cells; host or cells: insect Sf9 cells
T3 sequence (P08913 1-465): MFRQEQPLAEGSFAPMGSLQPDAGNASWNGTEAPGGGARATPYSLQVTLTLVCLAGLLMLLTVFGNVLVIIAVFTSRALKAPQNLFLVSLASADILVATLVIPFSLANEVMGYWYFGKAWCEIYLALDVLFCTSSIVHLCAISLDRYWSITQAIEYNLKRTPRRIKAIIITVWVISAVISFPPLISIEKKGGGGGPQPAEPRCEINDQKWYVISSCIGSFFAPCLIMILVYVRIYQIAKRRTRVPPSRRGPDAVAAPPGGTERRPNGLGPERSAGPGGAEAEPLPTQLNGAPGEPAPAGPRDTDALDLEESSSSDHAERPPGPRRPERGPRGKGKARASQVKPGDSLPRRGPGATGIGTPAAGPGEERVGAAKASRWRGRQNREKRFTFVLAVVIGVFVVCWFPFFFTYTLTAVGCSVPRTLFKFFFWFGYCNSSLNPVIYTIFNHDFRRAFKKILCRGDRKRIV
How it was run: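 Receptor expressed in insect Sf9 cells, assayed in 50 mM Tris-HCl pH 7.4 with 12.5 mM MgCl2 and 2 mM EDTA. Compounds incubated with 1 nM [3H]MK-912 for 60 min at 25 °C; nonspecific binding defined with 10 μM WB-4101. Filter-bound radioactivity counted; values are percent inhibition of specific binding.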

[4] = molecular target: T4, human recombinant adrenergic α2B receptor (Homo sapiens, UniProt P18089); test: Radioligand binding, adrenergic α2B ([3H]Rauwolscine); conditions: 0.1 μM compound; read-out: Percentage inhibition of ligand binding, Adrenergic α2B
T4 construct: expressed in transfected cells; host or cells: CHO-K1
T4 sequence (P18089 1-450): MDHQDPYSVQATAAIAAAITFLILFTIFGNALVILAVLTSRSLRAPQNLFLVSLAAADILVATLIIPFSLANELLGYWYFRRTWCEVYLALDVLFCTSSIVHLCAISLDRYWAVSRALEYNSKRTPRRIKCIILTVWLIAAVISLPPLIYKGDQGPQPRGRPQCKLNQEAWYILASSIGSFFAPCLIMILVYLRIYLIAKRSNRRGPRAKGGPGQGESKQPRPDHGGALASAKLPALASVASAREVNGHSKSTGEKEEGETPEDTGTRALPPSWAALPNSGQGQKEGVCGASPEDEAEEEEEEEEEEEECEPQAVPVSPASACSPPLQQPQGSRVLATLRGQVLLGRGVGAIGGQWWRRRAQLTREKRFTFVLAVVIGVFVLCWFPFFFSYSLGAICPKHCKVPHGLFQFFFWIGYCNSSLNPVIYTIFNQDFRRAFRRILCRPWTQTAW
How it was run: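 Assay used CHO-K1-expressed human α2B receptor in Tris-HCl pH 7.4 buffer with MgCl2, EDTA and BSA; 60 min incubation at 25 °C.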

Structure (SMILES) | inhibition at 0.1 µM [1] | inhibition at 0.1 µM [2] | inhibition at 0.1 µM [3] | inhibition at 0.1 µM [4]
COc1cc(/C(C)=C/n2c3c(c4cc(C)ccc42)CN(C)CC3)ccn1 [compound 269] | 36% | 44% | 61% | 83%
C/C(=C\n1c2c(c3cc(C)ccc31)CN(C)CC2)c1ccc2ccccc2c1 [compound 270] | 50% | 66% | 96% | 76%
C/C(=C/n1c2c(c3cc(C)ccc31)CN(C)CC2)c1ccc2ccccc2c1 [compound 271] | 65% | 83% | 97% | 71%
C/C(=C/n1c2c(c3cc(C)ccc31)CN(C)CC2)c1ccnn1C [compound 273] | 88% | 71% | 67% | 89%
C=CCC1(C)CN(C)Cc2c1n(/C=C(\C)c1ccc(F)cc1)c1ccc(C)cc21 (stereo not shown) [compound 274, 4-allyl-5-[2-(4-fluoro-phenyl)-propenyl]-2,4,8-trimethyl-2,3,4,5-tetrahydro-1H-pyrido[4,3-b]indole] | 28% | 25% | 68% | 27%
C/C(=C/n1c2c(c3cc(C)ccc31)CN(C)CC2)c1cnn(C)c1 [compound 275] | 75% | 61% | 51% | 94%
C/C(=C/n1c2c(c3cc(C)ccc31)CN(C)CC2)c1ccc(F)nc1 [compound 276] | 86% | 81% | 71% | 101%
C/C(=C/n1c2c(c3cc(C)ccc31)CN(C)CC2)c1ccc(C)s1 [compound 277] | 71% | 84% | 98% | 97%
C/C(=C\n1c2c(c3cc(C)ccc31)CN(C)CC2)c1ccc(C)s1 [compound 278] | 62% | 44% | 93% | 98%
C/C(=C/n1c2c(c3cc(C)ccc31)CN(C)CC2)c1cnc(N(C)C)nc1 [compound 279] | 79% | 93% | 90% | 92%
CSc1ccc(/C(C)=C/n2c3c(c4cc(Cl)ccc42)CN(C)CC3)cc1 [compound 280] | 76% | 65% | 97% | 98%
C/C(=C\n1c2c(c3cc(Cl)ccc31)CN(C)CC2)c1ccc(S(C)(=O)=O)cc1 [compound 281] | 67% | 47% | 72% | 90%
C/C(=C\n1c2c(c3cc(C)ccc31)CN(C)CC2)c1ccc2[nH]cnc2c1 [compound 282] | 33% | 30% | 75% | 101%
C/C(=C\n1c2c(c3cc(C)ccc31)CN(C)CC2)c1ccc2c(ccn2C)c1 [compound 283] | 63% | 46% | 90% | 89%
C/C(=C/n1c2c(c3cc(C)ccc31)CN(C)CC2)c1ccc2ccn(C)c2c1 [compound 284] | 83% | 81% | 97% | 76%
C/C(=C\n1c2c(c3cc(C)ccc31)CN(C)CC2)c1cc(C)cs1 [compound 285] | 63% | 71% | 98% | 97%
C/C(=C/n1c2c(c3cc(C)ccc31)CN(C)CC2)c1cccc2ccccc12 [compound 286] | 26% | 19% | 80% | 60%
C/C(=C/n1c2c(c3cc(C)ccc31)CN(C)CC2)c1sccc1C [compound 287] | 81% | 69% | 99% | 98%
C/C(=C/n1c2c(c3cc(C)ccc31)CN(C)CC2)c1cccc2[nH]ncc12 [compound 290] | 90% | 79% | 80% | 96%
C/C(=C/n1c2c(c3cc(C)ccc31)CN(C)CC2)c1cc(C)cs1 [compound 291] | 88% | 85% | 102% | 105%
C/C(=C\n1c2c(c3cc(C)ccc31)CN(C)CC2)c1cncc2ccccc12 [compound 292] | 13% | 23% | 58% | 104%
C/C(=C/n1c2c(c3cc(C)ccc31)CN(C)CC2)c1cc2ccccc2s1 [compound 293] | 73% | 82% | 96% | 93%
Cc1ccc2c(c1)c1c(n2CCc2csc3ccccc23)CCN(C)C1 [compound 294, 5-(2-benzo[b]thiophen-3-yl-ethyl)-2,8-dimethyl-2,3,4,5-tetrahydro-1H-pyrido[4,3-b]indole] | 76% | 39% | 94% | 41%
CSc1cccc(/C(C)=C/n2c3c(c4cc(Cl)ccc42)CN(C)CC3)c1 [compound 295] | 15% | 7% | 69% | 79%
C/C(=C\n1c2c(c3cc(Cl)ccc31)CN(C)CC2)c1cccc(S(C)(=O)=O)c1 [compound 296] | 20% | 33% | 60% | 70%
